≈ marks a conversion by molar mass, not a printed value.
Experiments:
[1] = Toxicity study in beagle dogs, per os; type: in vivo; conditions: 40mg/kg/day for 5 consecutive days, sacrificed at end of treatment or after a 2-week post-dose period
Method: Two male and 2 female beagle dogs were given 6-deoxyacyclovir per os ([…] daily for 5 consecutive days) at a dose level of 40mg/kg/day. There were no effects in 1 male and 1 female sacrificed at the end of the treatment period or in 1 male and 1 female sacrificed after a 2-week post-dose period.

[2] = target: T1, xanthine oxidase (Bos taurus, UniProt P80457); experiment: Oxidation by xanthine oxidase (enzyme studies); type: biochemical; conditions: xanthine oxidase from bovine milk; compared with 2-aminopurine
T1 construct: xanthine oxidase from bovine milk; from tissue; host or cells: bovine milk
T1 sequence (P80457 whole entry): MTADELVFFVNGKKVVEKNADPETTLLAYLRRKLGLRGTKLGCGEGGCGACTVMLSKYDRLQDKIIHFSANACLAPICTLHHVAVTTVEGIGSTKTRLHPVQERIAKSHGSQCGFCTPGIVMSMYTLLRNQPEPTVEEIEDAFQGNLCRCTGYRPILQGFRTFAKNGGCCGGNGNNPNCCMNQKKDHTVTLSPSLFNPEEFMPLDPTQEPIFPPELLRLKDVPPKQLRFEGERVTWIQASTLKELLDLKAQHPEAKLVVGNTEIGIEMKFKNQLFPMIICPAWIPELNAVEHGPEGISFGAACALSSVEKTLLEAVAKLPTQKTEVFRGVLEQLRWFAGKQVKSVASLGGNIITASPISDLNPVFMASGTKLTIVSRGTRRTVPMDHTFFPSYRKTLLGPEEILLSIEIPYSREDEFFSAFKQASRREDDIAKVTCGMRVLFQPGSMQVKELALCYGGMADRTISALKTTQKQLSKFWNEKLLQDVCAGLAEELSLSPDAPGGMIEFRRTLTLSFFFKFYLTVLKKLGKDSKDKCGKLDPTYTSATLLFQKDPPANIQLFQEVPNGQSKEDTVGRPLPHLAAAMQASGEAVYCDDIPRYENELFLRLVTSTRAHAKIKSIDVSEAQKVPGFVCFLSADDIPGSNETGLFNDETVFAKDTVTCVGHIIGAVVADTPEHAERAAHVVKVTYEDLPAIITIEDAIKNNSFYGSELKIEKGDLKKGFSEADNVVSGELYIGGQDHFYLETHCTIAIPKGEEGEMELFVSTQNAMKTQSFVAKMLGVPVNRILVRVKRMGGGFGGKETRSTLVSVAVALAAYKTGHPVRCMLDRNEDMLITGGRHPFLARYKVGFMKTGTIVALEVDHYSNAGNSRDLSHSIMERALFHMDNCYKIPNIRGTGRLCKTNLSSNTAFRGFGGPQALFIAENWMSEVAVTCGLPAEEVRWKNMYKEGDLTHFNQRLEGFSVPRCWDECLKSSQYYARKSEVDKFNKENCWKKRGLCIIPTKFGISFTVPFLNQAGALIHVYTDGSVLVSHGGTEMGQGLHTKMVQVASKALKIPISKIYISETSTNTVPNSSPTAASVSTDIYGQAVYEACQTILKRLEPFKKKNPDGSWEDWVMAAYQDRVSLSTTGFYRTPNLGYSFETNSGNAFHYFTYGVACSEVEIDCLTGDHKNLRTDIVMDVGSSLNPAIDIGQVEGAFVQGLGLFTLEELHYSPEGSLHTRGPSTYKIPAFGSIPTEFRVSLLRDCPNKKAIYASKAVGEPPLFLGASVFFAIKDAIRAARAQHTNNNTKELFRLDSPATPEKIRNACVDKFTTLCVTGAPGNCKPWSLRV
Source text: The discovery that the 6-hydrogen purine above can be readily converted into its corresponding 6-hydroxy analogue is surprising since in previous studies with xanthine oxidase from bovine milk (H. Lettre et al (1967) Biochem. Pharmacol., 16, 1747-1755; T. A. Krenitsky et al (1972) Arch. Biophys., 150, 585-599), it was shown that 9-substitution obliterates or greatly diminishes the rate at which a variety of purines are oxidised.

[3] = physchem; type: physicochemical; conditions: water
Source text: This improved water-solubility enables 6-deoxyacyclovir to be used in a greater variety of aqueous pharmaceutical formulations which require some solubilisation of the drug.

[4] = system: ICI strain of herpes simplex virus Type 1; experiment: Antiviral activity in mice infected intracerebrally with herpes simplex virus; type: in vivo, CD1 mice; conditions: for Mean Reciprocal Survival times / Survival Times (Days): 100mg/kg/dose; for Mean Reciprocal Survival times: virus controls 0.407; for Survival Times (Days): 2-3 hours after infection and twice daily for 4 days, observed over 14 days, groups of 10 mice
Method: The mice were divided into groups of 10, one group acting as untreated virus controls and the other groups receiving respectively (A) acyclovir at 100mg/kg/dose (i) subcutaneously (s.c.) (ii) orally (iii) intraperitoneally (i.p.) (B) the compound of Example 1 (6-deoxyacyclovir) at 100mg/kg/dose i) subcutaneously (s.c.) ii) orally iii) intraperitoneally (i.p.). The treatment groups received dosages of the drug 2-3 hours after infection and twice daily for 4 days. Observations were made over 14 days survival times were recorded.

[5] = Urinary excretion of acyclovir after oral dosing of rats (radioimmunoassay); type: in vivo, Long Evans male rats; conditions: rat, dose 25 mg/kg, urine samples, read-out: %Dose Excreted as Acyclovir
Method: The following experiments carried out to determine the urinary excretion and plasma levels of acyclovir after oral dosing of rats with acyclovir, 6-deoxyacyclovir and the 6-amino analogue thereof i.e. 2,6-diamino-9-(2-hydroxyethoxymethyl)-purine, hereinafter referred to as aminoacyclovir.
Long Evans male rats were dosed by intragastric needle with the drug and placed in metabolic cages which separated urine from faeces. The collected urine and plasma samples were analyzed for acyclovir content by a radioimmunoassay.

SMILES: Nc1ncc2ncn(COCCO)c2n1 [6-Deoxyacyclovir, 2-Amino-9-(2-hydroxyethoxymethyl)-9H-purine]
- effects (toxicity) [1]: no effects
- rate of oxidation by the enzyme [2]: faster rate than the 9- unsubstituted purine
- solubility [3]: 50 mg/mL (≈ 239 mM)
- antiviral action compared with acyclovir ([4]; administered orally): more effective action than acyclovir
- Mean Reciprocal Survival times ([4]; i.p.): 0.233
- Survival Times (Days) ([4]; oral): 1+2 1+4 2+5 3+6 1+8 1 survivor
- Mean Reciprocal Survival times ([4]; oral): 0.186
- Mean Reciprocal Survival times ([4]; s.c.): 0.289

SMILES: Nc1nc2c(ncn2COCCO)c(=O)[nH]1 [Acyclovir, 9-(2-hydroxyethoxymethyl)guanine, reference compound]
- dose excreted at 48 h [5]: 19.2%
- solubility [3]: 1.23 mg/mL (≈ 5.46 mM)
- Survival Times (Days) ([4]; i.p.): 2+2 2+4 2+5 2+7 1 survivor
- Mean Reciprocal Survival times ([4]; i.p.): 0.242
- Mean Reciprocal Survival times ([4]; oral): 0.325
- Mean Reciprocal Survival times ([4]; s.c.): 0.261

Reference: patent EP0108285B1, “Antiviral purine derivatives” (THE WELLCOME FOUNDATION LIMITED, priority 1982, dated 1984)
